N#CCC(N)=O
solubility (mole fraction)
Conditions	273.15 K	278.15 K	283.15 K	288.15 K	293.15 K	298.15 K	303.15 K	308.15 K	313.15 K	318.15 K
in 1,4-dioxane	–	–	–	0.0127	0.0155	0.0186	0.0226	0.0278	0.0342	0.0407
in DMF	0.254	0.262	0.271	0.283	0.295	0.309	0.325	0.343	0.36	0.382
in THF	0.00988	0.0112	0.0128	0.0145	0.0164	0.0187	0.0209	0.0236	0.0268	0.0301
in acetone	0.0248	0.0286	0.0335	0.039	0.0453	0.0527	0.0612	0.0712	0.0833	0.0956
in acetonitrile	0.0154	0.0187	0.0232	0.0272	0.0329	0.0389	0.0469	0.0553	0.0671	0.0795
in chloroform	0.000389	0.000465	0.000562	0.000678	0.000821	0.000985	0.00119	0.00143	0.00173	0.00208
in dichloromethane	0.000321	0.000388	0.000471	0.000559	0.000668	0.000792	0.000931	0.00112	–	–
in ethanol	0.00455	0.00558	0.00681	0.0087	0.0105	0.0129	0.0157	0.0188	0.0229	0.0277
in ethyl acetate	0.0043	0.00509	0.00602	0.00694	0.00829	0.00951	0.011	0.0128	0.0149	0.017
in methanol	0.0126	0.0156	0.0186	0.0227	0.0273	0.0332	0.04	0.0482	0.0558	0.0674
in methyl acetate	0.0115	0.0137	0.0163	0.0195	0.0228	0.0263	0.0307	0.0355	0.0408	0.0467
in n-butanol	0.00201	0.00246	0.00298	0.00377	0.00456	0.0055	0.00667	0.00797	0.00982	0.0119
in n-propanol	0.0022	0.00274	0.00355	0.00461	0.00591	0.00755	0.00935	0.0117	0.0147	0.0182
in water	–	0.0136	0.0179	0.0233	0.0313	0.0405	0.0519	0.0674	0.0887	0.114

From BigSolDB 2.1
